Results from patent US9493468B2, “Antifungal 5,6-dihydro-4H-pyrrolo[1,2-a][1,4]benzo-diazepines and 6H-pyrrolo[1,2-a][1,4]benzodiazepines substituted with heterocyclic derivatives” (Janssen Pharmaceutica NV, priority 2011, dated 2016).

Key:
Assay type in all cases: cell-based
Scedosporium prolificans = test: Antifungal activity in vitro, resazurin growth inhibition: Scedosporium prolificans (IHEM21157)
Experimental: (§1) The standard susceptibility screen is performed in 96-well plates (U-bottom, Greiner Bio-One). Serial dilutions (2-fold or 4-fold) of 20 mM compound stock solutions are made in 100% DMSO, followed by an intermediate dilution step in water. These serial dilutions (10 μl) are then spotted onto test-plates that can be stored in the dark at 4° C. for a maximum period of 2 weeks. An adequate broad dose-range is included with 64 μM as the highest in-test concentration. The culture medium RPMI-1640 is supplemented with L-glutamine, 2% glucose and buffered with 3-(N-morpholino)-propanesulfonic acid (MOPS) at pH 7.0±0.1.
(§2) The different fungal species/isolates (Table 3a) are cryopreserved and 1/1000 diluted in medium just prior to use. A standard inoculum of 200 μl containing 10^3 colony-forming unit (cfu) is then added to each well. A positive control (100% growth=fungal culture without antifungal) and a negative control (0% growth ═RPMI-MOPS medium) are included on each plate. Optimal incubation time and temperature are dependent on the fungal species and vary from 24 h for yeasts (37° C.) to one week or more for dermatophytes (27° C.). Inhibition of fungal growth is measured after adding 10 μl of 0.005% (w/v) resazurin (Sigma Aldrich) to each well, based on the principle that living cells convert the non-fluorescent blue resazurin into the pink and fluorescent resorufin, allowing fluorimetric reading (λex 550 nm and λem 590 nm) after an additional incubation period (‘resa’ time mentioned in Table 3a).

Trichophyton rubrum = test: Antifungal activity in vitro, resazurin growth inhibition: Trichophyton rubrum (B68183)
Summary of the method: (§3)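 Broth microdilution: RPMI-1640/L-Gln/2% glucose, MOPS pH 7.0±0.1; 10^3 cfu/well; top concentration 64 μM, 2- or 4-fold steps. Dermatophytes at 27° C., one week or more. Resazurin 0.005% (w/v) added, fluorescence 550/590 nm.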

Rhizopus oryzae = test: Antifungal activity in vitro, resazurin growth inhibition: Rhizopus oryzae (IHEM5223)
Experimental: as §1, §2

Scedosporium apiospermum = test: Antifungal activity in vitro, resazurin growth inhibition: Scedosporium apiospermum (IHEM3817)
Experimental: as §1, §2

Rhizomucor miehei = test: Antifungal activity in vitro, resazurin growth inhibition: Rhizomucor miehei (IHEM13391)
Experimental: as §1, §2

Candida parapsilosis = test: Antifungal activity in vitro, resazurin growth inhibition: Candida parapsilosis (B66126)
Summary of the method: (§4)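 Compound dilutions, with 64 μM as the highest in-test level, are spotted onto plates, then an inoculum of 10^3 cfu in RPMI-1640 plus 2% glucose (MOPS, pH 7.0±0.1) is added. Plates are incubated at species-dependent time and temperature, up to a week or more at 27° C. for dermatophytes.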

Cryptococcus neoformans = test: Antifungal activity in vitro, resazurin growth inhibition: Cryptococcus neoformans (B66663)
Summary of the method: as §4

Aspergillus fumigatus = test: Antifungal activity in vitro, resazurin growth inhibition: Aspergillus fumigatus (B42928)
Summary of the method: as §4

Microsporum canis = test: Antifungal activity in vitro, resazurin growth inhibition: Microsporum canis (B68128)
Summary of the method: as §3

Sporothrix schenkii = test: Antifungal activity in vitro, resazurin growth inhibition: Sporothrix schenkii (B62482)
Summary of the method: as §4

[1] = test system: Trichophyton mentagrophytes; test: Antifungal activity in vitro, resazurin growth inhibition: Trichophyton mentagrophytes (B70554)
Summary of the method: as §3

Structure (SMILES) | Inf. I: Scedosporium prolificans IHEM21157, pIC50 (Scedosporium prolificans) | Inf. C: Trichophyton rubrum B68183, pIC50 (Trichophyton rubrum) | Inf. J: Rhizopus oryzae IHEM5223, pIC50 (Rhizopus oryzae) | Inf. H: Scedosporium apiospermum IHEM3817, pIC50 (Scedosporium apiospermum) | Inf. K: Rhizomucor miehei IHEM13391, pIC50 (Rhizomucor miehei) | Inf. D: Candida parapsilosis B66126, pIC50 (Candida parapsilosis) | Inf. F: Cryptococcus neoformans B66663, pIC50 (Cryptococcus neoformans) | Inf. E: Aspergillus fumigatus B42928, pIC50 (Aspergillus fumigatus) | Inf. B: Microsporum canis B68128, pIC50 (Microsporum canis) | Inf. A: Sporothrix schenkii B62482, pIC50 (Sporothrix schenkii) | Inf. G: Trichophyton mentagrophytes B70554, pIC50 [1]
CC(F)(F)c1ccc(C2=NCc3c(F)cccc3-n3cccc32)cn1 [Compound 83] | 6.09 | 6.68 | <4.19 | <4.19 | <4.19 | <4.19 | <4.19 | 5.33 | 4.97 | <4.19 | 5.88
CC(F)(F)c1ccc(C2=NCc3c(Cl)cc(Cl)cc3-n3cccc32)cn1 [Compound 84] | <4.19 | 6.26 | <4.19 | 5.31 | <4.19 | 5.44 | 5.88 | 6.24 | 6.24 | 5.65 | 5.88
CC(F)(F)c1ccc(C2=NCc3c(Cl)cc(F)cc3-n3cccc32)cn1 [Compound 85] | 4.81 | 6.81 | <4.19 | 5.44 | <4.19 | 5.61 | 5.86 | 6.28 | 6.73 | 4.63 | 6.60
CC(F)(F)c1ccc(C2=NCc3c(F)cc(F)cc3-n3cccc32)cn1 [Compound 86] | 5.77 | 6.30 | <4.19 | 4.43 | <4.19 | 5.56 | 4.99 | 5.68 | 5.67 | 4.94 | 5.59
FC(F)(F)c1ccc(C2=NCc3ccccc3-n3cccc32)cn1 [Compound 87] | 5.71 | 6.54 | <4.19 | <4.19 | <4.19 | <4.19 | <4.19 | 4.94 | 5.97 | <4.19 | 5.18
Cc1cccc2c1CN=C(c1ccc(C(F)(F)F)nc1)c1cccn1-2 [Compound 88] | 6.14 | 7.10 | <4.19 | 5.28 | <4.19 | <4.19 | <4.19 | <4.19 | 6.63 | 4.85 | 5.80
FC(F)(F)c1ccc(C2=NCc3c(Cl)cccc3-n3cccc32)cn1 [Compound 89] | 6.28 | 6.75 | <4.19 | <4.19 | <4.19 | 6.17 | <4.19 | 5.70 | 6.14 | <4.19 | 6.23
FC(F)(F)c1ccc(C2=NCc3c(Cl)cc(Cl)cc3-n3cccc32)cn1 [Compound 91] | 5.28 | 6.27 | <4.19 | <4.19 | <4.19 | <4.19 | <4.19 | 5.75 | 5.69 | 5.10 | 5.72
CC(=O)c1ccc(C2=NCc3c(Cl)cccc3-n3cccc32)cn1 [Compound 92] | <4.19 | 6.09 | <4.19 | <4.19 | <4.19 | <4.19 | <4.19 | <4.19 | <4.19 | <4.19 | <4.19
CC(=O)c1ccc(C2=NCc3c(F)cc(F)cc3-n3cccc32)cn1 [Compound 94] | <4.19 | 6.19 | <4.19 | <4.19 | <4.19 | 4.59 | 4.58 | 5.13 | 5.71 | <4.19 | 5.92

Second part, the molecule after the results:

Inf. I: Scedosporium prolificans IHEM21157, pIC50 (Scedosporium prolificans) | Inf. C: Trichophyton rubrum B68183, pIC50 (Trichophyton rubrum) | Inf. J: Rhizopus oryzae IHEM5223, pIC50 (Rhizopus oryzae) | Inf. H: Scedosporium apiospermum IHEM3817, pIC50 (Scedosporium apiospermum) | Inf. K: Rhizomucor miehei IHEM13391, pIC50 (Rhizomucor miehei) | Inf. D: Candida parapsilosis B66126, pIC50 (Candida parapsilosis) | Inf. F: Cryptococcus neoformans B66663, pIC50 (Cryptococcus neoformans) | Inf. E: Aspergillus fumigatus B42928, pIC50 (Aspergillus fumigatus) | Inf. B: Microsporum canis B68128, pIC50 (Microsporum canis) | Inf. A: Sporothrix schenkii B62482, pIC50 (Sporothrix schenkii) | Inf. G: Trichophyton mentagrophytes B70554, pIC50 [1] | Structure (SMILES)
5.18 | 6.84 | <4.19 | <4.19 | <4.19 | <4.19 | <4.19 | 5.05 | 6.34 | 4.59 | 6.01 | FC(F)(F)c1ncc(C2=NCc3c(Cl)cccc3-n3cccc32)cn1 [Compound 102]
8.00 | 6.87 | <4.19 | 7.52 | 4.23 | 4.91 | 5.30 | 5.76 | 6.67 | 5.70 | 6.91 | Clc1cccc2c1CN=C(c1cnc3c(c1)CCC3)c1cccn1-2 [Compound 105]
5.48 | 5.92 | <4.19 | 4.90 | <4.19 | 4.87 | 5.53 | 5.06 | 6.31 | 5.16 | 5.44 | Cn1ccc2cc(C3=NCc4c(Cl)cc(Cl)cc4-n4cccc43)ccc21 [Compound 107]
5.89 | 5.96 | <4.49 | 4.77 | <4.49 | 4.58 | 5.09 | 5.50 | 5.30 | 4.44 | 5.60 | Cn1nnc2ccc(C3=NCc4c(Cl)cccc4-n4cccc43)cc21 [Compound 110]
